Where a name gives a salt, the structure may show the parent alone.
Key:
Human Met = target: T1, Human Met (Homo sapiens, UniProt P08581); test: Human Met kinase assay (33P radiometric / HTRF KinEase); format: biochemical; conditions: protocols of Examples D-1 and/or D-2; read-out: c-Met IC50
T1 construct: Human MET (residues 956-1390)
Method in brief: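 Two formats gave IC50s by curve fitting. HTRF KinEase used MET residues 956-1390 with 1 μM biotin-peptide and 3.0 μM ATP (Km) for 40 min at room temperature, ten doses in 3% DMSO, 665/620 nm read. The 33P transfer assay used mutant Met R974-S1390 A1209G/V1290L (3.4 nM), 10 μM ATP, 250 μM peptide, pH 7.0, 40 min, nine doses from 1 μM.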

Human Axl = target: T2, Human Axl (Homo sapiens, UniProt P30530); test: Human AXL kinase assay (33P radiometric / HTRF KinEase); format: biochemical; conditions: protocols of Examples A-1 and/or A-2
T2 construct: Human AXL (residues 464-885)
T2 sequence (P30530 1-894 Q764R): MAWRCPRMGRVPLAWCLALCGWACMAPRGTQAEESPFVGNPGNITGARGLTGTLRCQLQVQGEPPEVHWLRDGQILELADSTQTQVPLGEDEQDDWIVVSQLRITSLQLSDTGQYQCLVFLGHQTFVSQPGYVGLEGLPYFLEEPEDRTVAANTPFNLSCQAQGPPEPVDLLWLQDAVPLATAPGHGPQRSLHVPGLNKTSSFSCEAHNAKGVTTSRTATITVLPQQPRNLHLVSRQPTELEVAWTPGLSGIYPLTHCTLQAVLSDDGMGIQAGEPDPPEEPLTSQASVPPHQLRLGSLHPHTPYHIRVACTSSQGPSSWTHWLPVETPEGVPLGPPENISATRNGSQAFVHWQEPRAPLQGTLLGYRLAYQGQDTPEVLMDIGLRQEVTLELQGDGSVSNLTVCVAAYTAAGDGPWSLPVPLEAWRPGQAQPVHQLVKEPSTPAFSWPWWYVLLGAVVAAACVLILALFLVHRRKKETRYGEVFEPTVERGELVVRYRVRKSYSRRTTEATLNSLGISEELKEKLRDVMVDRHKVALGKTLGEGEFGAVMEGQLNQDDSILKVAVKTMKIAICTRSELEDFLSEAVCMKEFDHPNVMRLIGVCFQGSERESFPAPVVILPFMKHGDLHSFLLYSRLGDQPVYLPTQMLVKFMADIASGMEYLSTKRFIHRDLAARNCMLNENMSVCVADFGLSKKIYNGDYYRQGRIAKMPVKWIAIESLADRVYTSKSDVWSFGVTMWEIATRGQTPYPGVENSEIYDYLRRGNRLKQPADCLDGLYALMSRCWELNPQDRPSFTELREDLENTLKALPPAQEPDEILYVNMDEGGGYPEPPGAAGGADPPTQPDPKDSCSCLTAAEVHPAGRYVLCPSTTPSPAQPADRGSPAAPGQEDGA

T1 sequence (P08581 974-1390 limits assumed): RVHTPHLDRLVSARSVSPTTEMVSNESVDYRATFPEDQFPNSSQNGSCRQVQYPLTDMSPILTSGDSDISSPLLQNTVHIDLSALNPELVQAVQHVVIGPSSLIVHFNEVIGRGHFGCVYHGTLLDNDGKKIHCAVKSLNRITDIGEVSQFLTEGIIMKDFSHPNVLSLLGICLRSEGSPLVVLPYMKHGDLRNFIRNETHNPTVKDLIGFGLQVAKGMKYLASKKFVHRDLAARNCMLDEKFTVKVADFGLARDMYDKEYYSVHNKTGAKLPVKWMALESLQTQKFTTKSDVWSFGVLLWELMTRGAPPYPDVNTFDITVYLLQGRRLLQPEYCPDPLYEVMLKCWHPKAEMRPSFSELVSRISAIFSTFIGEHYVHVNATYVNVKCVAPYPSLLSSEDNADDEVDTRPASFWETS

Compound | IC50 (Human Met) | IC50 (Human Axl)
COCCOc1cc2nccc(Oc3ccc(NC(=O)c4c(C)n(C)c(C)c(/C=C/C5CCCC5)c4=O)cc3F)c2nc1OC [Compound 54, 5-[(E)-2-Cyclopentylethenyl]-N-[3-fluoro-4-[[6-methoxy-7-(2-methoxyethoxy)-1,5-naphthyridin-4-yl]oxy]phenyl]-1,2,6-trimethyl-4-oxopyridine-3-carboxamide] | 100 to 300 nM | ≤ 100 nM
C=C(C)c1c(C)n(C)c(C)c(C(=O)Nc2ccc(Oc3ccnc4cc(OC)c(OC)nc34)cc2)c1=O [Compound 55, N-[4-[(6,7-Dimethoxy-1,5-naphthyridin-4-yl)oxy]phenyl]-1,2,6-trimethyl-4-oxo-5-prop-1-en-2-ylpyridine-3-carboxamide] | > 300 nM | ≤ 100 nM
COCCOc1cnc2c(Oc3ccc(NC(=O)c4c(C)n(C)c(C)c(C5=CCCCC5)c4=O)cc3F)ccnc2c1 [Compound 66, 5-(Cyclohexen-1-yl)-N-[3-fluoro-4-[[7-(2-methoxyethoxy)-1,5-naphthyridin-4-yl]oxy]phenyl]-1,2,6-trimethyl-4-oxopyridine-3-carboxamide] | ≤ 100 nM | ≤ 100 nM
C=C(C)c1c(C)n(C)c(C)c(C(=O)Nc2ccc(Oc3ccnc4cc(OC)c(OC)nc34)c(F)c2)c1=O [Compound 52, N-[4-[(6,7-Dimethoxy-1,5-naphthyridin-4-yl)oxy]-3-fluorophenyl]-1,2,6-trimethyl-4-oxo-5-prop-1-en-2-ylpyridine-3-carboxamide] | > 300 nM | ≤ 100 nM
COc1cc2nccc(Oc3ccc(NC(=O)c4c(C)n(C)c(C)c(C5=CCOCC5)c4=O)cc3F)c2nc1OC [Compound 53, 5-(3,6-Dihydro-2H-pyran-4-yl)-N-[4-[(6,7-dimethoxy-1,5-naphthyridin-4-yl)oxy]-3-fluorophenyl]-1,2,6-trimethyl-4-oxopyridine-3-carboxamide] | ≤ 100 nM | ≤ 100 nM
COc1cc2nccc(Oc3ccc(NC(=O)c4c5n(cc(C6=CCCCC6)c4=O)CCOC5)cc3F)c2nc1OC [Compound G1-4, 7-(Cyclohexen-1-yl)-N-[4-[(6,7-dimethoxy-1,5-naphthyridin-4-yl)oxy]-3-fluorophenyl]-8-oxo-3,4-dihydro-1H-pyrido[2,1-c][1,4]oxazine-9-carboxamide] | ≤ 100 nM | ≤ 100 nM
COc1nc2c(Oc3ccc(NC(=O)c4c(C)n(C)c(C)c(C5=CCCC5)c4=O)cc3F)ccnc2cc1OCCC1CCC1 [Compound 74, N-[4-[[7-(2-Cyclobutylethoxy)-6-methoxy-1,5-naphthyridin-4-yl]oxy]-3-fluorophenyl]-5-(cyclopenten-1-yl)-1,2,6-trimethyl-4-oxopyridine-3-carboxamide] | ≤ 100 nM | ≤ 100 nM
COCCOc1cc2nccc(Oc3ccc(NC(=O)c4c(C)n(C)c(C)c(C5=CCCCC5)c4=O)cc3F)c2nc1OC [Compound 58, 5-(Cyclohexen-1-yl)-N-[3-fluoro-4-[[6-methoxy-7-(2-methoxyethoxy)-1,5-naphthyridin-4-yl]oxy]phenyl]-1,2,6-trimethyl-4-oxopyridine-3-carboxamide] | ≤ 100 nM | ≤ 100 nM
COc1cc2nccc(Oc3ccc(NC(=O)c4c5n(c(C)c(C6=CCOCC6)c4=O)CCOC5)cc3)c2nc1OC [Compound 73, 7-(3,6-Dihydro-2H-pyran-4-yl)-N-[4-[(6,7-dimethoxy-1,5-naphthyridin-4-yl)oxy]phenyl]-6-methyl-8-oxo-3,4-dihydro-1H-pyrido[2,1-c][1,4]oxazine-9-carboxamide] | ≤ 100 nM | ≤ 100 nM
COc1cc2nccc(Oc3ccc(NC(=O)c4cnc(C)c(C5=CCCCC5)c4O)cc3F)c2nc1OC [Compound G1-3, 5-(Cyclohexen-1-yl)-N-[4-[(6,7-dimethoxy-1,5-naphthyridin-4-yl)oxy]-3-fluorophenyl]-4-hydroxy-6-methylpyridine-3-carboxamide] | ≤ 100 nM | ≤ 100 nM
COCCOc1cnc2c(Oc3ccc(NC(=O)c4c(C)n(C)c(C)c(C5=CCCC5)c4=O)cc3F)ccnc2c1 [Compound 65, 5-(Cyclopenten-1-yl)-N-[3-fluoro-4-[[7-(2-methoxyethoxy)-1,5-naphthyridin-4-yl]oxy]phenyl]-1,2,6-trimethyl-4-oxopyridine-3-carboxamide] | ≤ 100 nM | ≤ 100 nM
COc1cc2nccc(Oc3ccc(NC(=O)c4cnc(C)c(C5=CCCC5)c4O)cc3F)c2nc1OC [Compound G1-2, 5-(Cyclopenten-1-yl)-N-[4-[(6,7-dimethoxy-1,5-naphthyridin-4-yl)oxy]-3-fluorophenyl]-4-hydroxy-6-methylpyridine-3-carboxamide hydrochloride] | ≤ 100 nM | ≤ 100 nM
